{"source": "patent US9878006B2", "about": "“Treatment of obesity and obesity related disorders by pharmalogical targeting of Kv1.3 potassium channels” (The Regents of the University of California, priority 2011, dated 2018)", "key": {"brown fat [1]": {"system": "brown fat", "conditions": "man; 1 mg/kg; cited from earlier work"}, "brown fat [2]": {"system": "brown fat", "conditions": "rats; 5 mg/kg body wt; cited from earlier work"}, "brown adipose tissue": {"system": "brown adipose tissue", "assay": "PET scan, 18FDG uptake by brown adipose tissue", "assay_type": "in vivo, mice", "experimental": "(§1) ^18F-FDG was purchased from PETNET. Mice were fasted overnight before CT or PET scan. For PET scan animals were injected with 0.1-0.2 mCi of ^18F-FDG in sterile saline. Approximately, 0.02 to 0.05 ml was administered intravenously (tail vein) under 2% Isoflurane and animal was allowed to remain awake for 60 mins in their cages to allow distribution and uptake of ^18F-FDG. During the scan 2% isoflurane was used and the mouse was laid in the supine position on the scanner. All PET acquisitions were performed with an Inveon (Siemens Medical Solutions) preclinical PET scanner. PET data was acquired for 30 min. When used with PET scanner CT data was obtained immediately after PET imaging without changing the position of the animal. PET images were corrected for attenuation, scatter, randoms, and dead time. Images were reconstructed as 128×128 matrices using a fast MAP algorithm with a smoothing factor of 0.1. CT HU of BAT and WAT was obtained by calibrating the CT data using linear interpolation of water CT Density (CT HU=0) and air CT density (CT HU=−1000). After the scan procedure, animals were allowed to recover from anesthesia, placed in their cages and monitored for normal recovery.\n(§2) All scanning data was acquired in full list mode and sorted into a single frame, 3 dimensional sinogram, which was rebinned using a Fourier rebinning algorithm. […]"}, "skeletal muscle": {"system": "skeletal muscle", "assay": "PET imaging, 18FDG uptake by skeletal muscle", "assay_type": "in vivo, mice", "conditions": "FIG. 7", "experimental": "as §1, §2"}, "[3]": {"system": "brown adipose tissue cells", "conditions": "potassium channel blockade; cited from earlier work"}, "[4]": {"assay": "CLAMS metabolic cages: feeding, drinking, RER, energy expenditure", "assay_type": "in vivo, mice", "text": "FIGS. 4A through 4D show feeding and drinking patterns of mice analyzed in negative-flow CLAMS (Comprehensive Lab Animal Monitoring system) metabolic cages. All the animals were habituated with the high fat/high fructose diet for at least 7 days prior to the metabolic cage studies. All animals were placed individually in each metabolic cage and habituated for two days under normal 12 hr. light-dark cycle.\nMice were acclimated for 2 days in the metabolic cages before the measurements were made.\nFIGS. 5A through 5D show Respiratory Exchange Ratio (RER) and energy expenditure in vehicle controls (n-2) and ShK-186-treated mice (n=2). RER of 0.70 is when a subject is metabolizing pure fat, whereas RER of 1.0 is when a subject is metabolizing pure carbohydrate."}, "white adipose tissue": {"system": "white adipose tissue", "assay": "CT scan of white adipose tissue in the diet-induced obesity model", "assay_type": "in vivo, C57BL/6 mice", "conditions": "500 μg/kg; after 45 days on high fat/high fructose diet; vs vehicle; p=0.000708; FIG. 3A/3B", "experimental": "Mice were fasted overnight before CT scans. All CT acquisitions were performed with an Inveon (Siemens Medical Solutions) preclinical CT scanner. During the scan 2% isoflurane was used and the mouse was laid in the supine position on the scanner. Images were reconstructed as 128×128 matrices using a fast MAP algorithm with a smoothing factor of 0.1. CT HU of WAT was obtained by calibrating the CT data using linear interpolation of water CT Density (CT HU=0) and air CT density (CT HU=−1000). After the scan procedure, animals were allowed to recover from anesthesia, placed in their cages and monitored for normal recovery. All scanning data was acquired in full list mode and sorted into a single frame, 3 dimensional sinogram, which was rebinned using a Fourier rebinning algorithm. The images were reconstructed using 2 dimensional filter back projection using a Hanning Filter with a Nyquist cut off at 0.5, and corrected for attenuation using the Co-57 attenuation scan data. All CT Data analysis was done using PMOD 3.0 software."}, "[5]": {"assay": "diet-induced obesity model in mice (high fat/high fructose diet): weight gain and blood glucose", "assay_type": "in vivo, C57BL/6 mice", "conditions": "20, 100 or 500 μg/kg s.c. on alternate days", "experimental": "The accompanying figures show the obesity-deterring efficacy of ShK-186 in the diet-induced obesity model in C57BL/J mice (diet composed of 21% fat+60% fructose-water). 8 week old C57BL/6 mice were purchased from Harlan Co. (Indianapolis, Ind.). They were fed a specialized high fat diet (#TD88137; 21% fat) purchased from Harlan Co. (Indianapolis, Ind.), and they received a 60% fructose solution to drink. The mice were administered vehicle (P6N) or ShK-186 (20, 100 or 500 μg/kg) by subcutaneous injections on alternate days. Animals were weighed on alternate days. Blood glucose levels were monitored every 6 days by tail-vein sampling using an Accu-Chek compact glucometer from Roche. The animal experimental protocol was approved by the Institutional Animal Care and Use Committee at University of California, Irvine.\nAll mice received the high fat/high fructose diet throughout the trial. They received vehicle (P6N) or ShK-186 (20, 100 or 500 μg/kg) on alternate days by subcutaneous injection. The weight is normalized to the average weight at the start of the study. All the mice in this study were males. Using repeated measures ANOVA, the p value <0.0001 for all the ShK-186 doses."}, "[6]": {"conditions": "n=2, vs vehicle controls, FIG. 5A-5D"}}, "note": "Like-named read-outs stand apart in the source and are kept apart here.", "data": [{"molecule": "CC(C)NCC(O)COc1cccc2ccccc12", "note": "(centres unmarked) [propranolol, reference compound]", "values": [{"measurement": "18-fluoro-deoxyglucose uptake into brown fat", "setting": "brown fat [1]", "result": "has the same effect"}, {"measurement": "18-fluoro-deoxyglucose uptake into brown fat", "setting": "brown fat [2]", "result": "eliminates ^18-fluoro-deoxyglucose uptake into brown fat"}, {"measurement": "inhibition of 18FDG uptake by brown adipose tissue", "setting": "brown adipose tissue; propranolol 5 m/kg, FIG. 6B", "result": "inhibited"}, {"measurement": "inhibition of ShK-186-increased 18FDG uptake by skeletal muscle", "setting": "skeletal muscle; propranolol 5 mg/kg", "result": "did not inhibit this uptake"}]}, {"molecule": "CC[N+](CC)(CC)CC", "note": "[tetraethylammonium]", "values": [{"measurement": "metabolic response of brown adipose tissue cells to adrenergic stimulation", "setting": "[3]", "result": "does not alter the metabolic response of brown adipose tissue cells to adrenergic stimulation"}]}, {"molecule": "p-phospho-Tyr-AEEAc-Arg-Ser-Cys-Ile-Asp-Thr-Ile-Pro-Lys-Ser-Arg-Cys-Thr-Ala-Phe-Gln-Cys-Lys-His-Ser-Met-Lys-Tyr-Arg-Leu-Ser-Phe-Cys-Arg-Lys-Thr-Cys-Gly-Thr-Cys [ShK-186]", "values": [{"measurement": "feeding and drinking pattern", "setting": "[4]; given at onset of the measuring phase, controls feed and drink in dark cycle only, p<0.05 after first 24 hrs, FIG. 4A-4D", "result": "feed and drink during both dark and light cycles"}, {"measurement": "Respiratory Exchange Ratio (RER), substrate metabolized", "setting": "[4]; n=2, especially during the light cycle, FIG. 5A-5D", "result": "metabolize more carbohydrate than fat"}, {"measurement": "energy expenditure during the day", "setting": "[4]; [6]", "result": "greater energy expenditure during the day"}, {"measurement": "energy expenditure during the night", "setting": "[4]; [6]", "result": "roughly equivalent energy expenditure during the night"}, {"measurement": "18FDG uptake by brown adipose tissue", "setting": "brown adipose tissue; ShK-186 at 100 and 500 μg/kg, FIG. 6A", "result": "induces ^18FDG-uptake by brown adipose tissue"}, {"measurement": "18FDG uptake by skeletal muscle", "setting": "skeletal muscle; ShK-186 at 20, 100 and 500 μg/kg", "result": "increased ^18FDG uptake by skeletal muscle"}, {"measurement": "volume of white adipose tissue", "setting": "white adipose tissue", "result": "significantly reduced the volume of white adipose tissue"}, {"measurement": "blood glucose levels", "setting": "[5]; measured every 6 days, FIG. 1B", "result": "without changing blood glucose levels"}, {"measurement": "weight gain", "setting": "[5]; vs vehicle, dose-dependent, p<0.0001 for all doses, FIG. 1A", "result": "significantly reduced weight gain"}]}]}
